Experimental data published in US12331044B2, “Inhibitors of histone deacetylase useful for the treatment or prevention of HIV infection” (Merck Sharp & Dohme LLC, priority 2018, dated 2025).
pIC50: −log10 of the molar value. Read-outs that look alike come from different tables or passages of the source.

Key:
human HDAC8 = human HDAC8 (Homo sapiens (Human), UniProt Q9BY41); experiment: HDAC8 inhibition assay (modified FLUOR DE LYS, 384-well); format: biochemical; details: for IC50: […] nM enzyme
Chain of human HDAC8 (Q9BY41 whole entry): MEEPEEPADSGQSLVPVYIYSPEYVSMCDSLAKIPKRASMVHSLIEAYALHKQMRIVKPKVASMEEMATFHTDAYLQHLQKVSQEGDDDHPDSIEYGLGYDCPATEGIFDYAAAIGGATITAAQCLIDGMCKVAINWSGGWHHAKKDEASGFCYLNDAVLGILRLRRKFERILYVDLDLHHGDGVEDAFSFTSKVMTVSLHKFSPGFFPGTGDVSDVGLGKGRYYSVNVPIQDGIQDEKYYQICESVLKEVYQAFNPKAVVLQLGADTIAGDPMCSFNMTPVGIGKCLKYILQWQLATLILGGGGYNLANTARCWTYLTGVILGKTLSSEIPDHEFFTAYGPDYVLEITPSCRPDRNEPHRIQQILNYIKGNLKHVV
Method: (§1) The histone deacetylase activities of HDAC1, HDAC2, HDAC3, HDAC6, and HDAC8 were measured in modified FLUOR DE LYS assays in 384-well format. In this assay, HDAC enzymes are initially incubated with an F-acetyl (or -trifluoroacetyl)-L-lysine-containing substrate with a C-terminal amide having aminomethylcoumarin as the amine component. HDACs cleave the F-acetyl group, rendering the resulting product susceptible to AMC cleavage by trypsin. The released AMC is then detected by its fluorescence. […] All steps were performed at room temperature (23° C.). The assay was performed by pre-incubating serial dilutions of test compounds with the target HDAC prior to initiation with substrate. […] Final conditions used for each assay were: 1. […] The reactions were stopped and developed by addition of 30 ul of HDAC developer solution containing a saturating level of HDAC inhibitor as follows: 1. […] For data analysis, background subtracted product (fluorescence) vs. time data for each inhibitor concentration was fitted using a 4-parameter fit.

KARN cells (Jurkat 2C4) = experiment: cells; details: Homo sapiens
human HDAC2 = human HDAC2 (Homo sapiens (Human), UniProt Q92769); experiment: HDAC2 inhibition assay (modified FLUOR DE LYS, 384-well); format: biochemical; details: for IC50: […] nM enzyme
Chain of human HDAC2 (Q92769 whole entry): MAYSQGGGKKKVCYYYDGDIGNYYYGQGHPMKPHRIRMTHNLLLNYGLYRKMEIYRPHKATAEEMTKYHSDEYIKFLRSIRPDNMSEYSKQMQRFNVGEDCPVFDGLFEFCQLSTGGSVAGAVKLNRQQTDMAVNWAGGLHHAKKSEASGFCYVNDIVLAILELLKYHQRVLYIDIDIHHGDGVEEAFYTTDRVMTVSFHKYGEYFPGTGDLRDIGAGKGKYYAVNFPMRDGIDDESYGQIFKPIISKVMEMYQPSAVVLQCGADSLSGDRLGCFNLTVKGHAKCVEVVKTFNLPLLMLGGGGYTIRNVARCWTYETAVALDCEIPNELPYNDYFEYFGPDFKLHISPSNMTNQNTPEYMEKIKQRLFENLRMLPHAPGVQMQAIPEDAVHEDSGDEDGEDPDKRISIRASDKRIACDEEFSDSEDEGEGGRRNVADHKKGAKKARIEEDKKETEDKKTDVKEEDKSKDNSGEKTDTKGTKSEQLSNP

human HDAC1 [1] = target: T1, human HDAC1 (Homo sapiens (Human), UniProt Q13547); experiment: biochemical
T1 sequence (Q13547 whole entry): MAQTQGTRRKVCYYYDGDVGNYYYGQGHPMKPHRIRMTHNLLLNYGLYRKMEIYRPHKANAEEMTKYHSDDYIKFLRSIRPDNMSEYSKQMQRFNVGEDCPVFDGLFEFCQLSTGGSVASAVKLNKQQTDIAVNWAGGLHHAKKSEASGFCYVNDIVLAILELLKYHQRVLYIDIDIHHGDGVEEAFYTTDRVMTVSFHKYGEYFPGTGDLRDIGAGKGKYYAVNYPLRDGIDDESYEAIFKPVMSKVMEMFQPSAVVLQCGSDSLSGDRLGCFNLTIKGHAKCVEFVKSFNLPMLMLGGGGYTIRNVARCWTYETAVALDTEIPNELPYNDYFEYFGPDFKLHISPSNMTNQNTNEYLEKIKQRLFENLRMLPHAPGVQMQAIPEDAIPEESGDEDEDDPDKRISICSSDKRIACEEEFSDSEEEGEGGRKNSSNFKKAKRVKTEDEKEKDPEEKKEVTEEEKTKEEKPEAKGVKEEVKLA

HDAC6 [2] = target: T2, HDAC6 (Homo sapiens (Human), UniProt Q9UBN7); experiment: biochemical
T2 sequence (Q9UBN7 whole entry): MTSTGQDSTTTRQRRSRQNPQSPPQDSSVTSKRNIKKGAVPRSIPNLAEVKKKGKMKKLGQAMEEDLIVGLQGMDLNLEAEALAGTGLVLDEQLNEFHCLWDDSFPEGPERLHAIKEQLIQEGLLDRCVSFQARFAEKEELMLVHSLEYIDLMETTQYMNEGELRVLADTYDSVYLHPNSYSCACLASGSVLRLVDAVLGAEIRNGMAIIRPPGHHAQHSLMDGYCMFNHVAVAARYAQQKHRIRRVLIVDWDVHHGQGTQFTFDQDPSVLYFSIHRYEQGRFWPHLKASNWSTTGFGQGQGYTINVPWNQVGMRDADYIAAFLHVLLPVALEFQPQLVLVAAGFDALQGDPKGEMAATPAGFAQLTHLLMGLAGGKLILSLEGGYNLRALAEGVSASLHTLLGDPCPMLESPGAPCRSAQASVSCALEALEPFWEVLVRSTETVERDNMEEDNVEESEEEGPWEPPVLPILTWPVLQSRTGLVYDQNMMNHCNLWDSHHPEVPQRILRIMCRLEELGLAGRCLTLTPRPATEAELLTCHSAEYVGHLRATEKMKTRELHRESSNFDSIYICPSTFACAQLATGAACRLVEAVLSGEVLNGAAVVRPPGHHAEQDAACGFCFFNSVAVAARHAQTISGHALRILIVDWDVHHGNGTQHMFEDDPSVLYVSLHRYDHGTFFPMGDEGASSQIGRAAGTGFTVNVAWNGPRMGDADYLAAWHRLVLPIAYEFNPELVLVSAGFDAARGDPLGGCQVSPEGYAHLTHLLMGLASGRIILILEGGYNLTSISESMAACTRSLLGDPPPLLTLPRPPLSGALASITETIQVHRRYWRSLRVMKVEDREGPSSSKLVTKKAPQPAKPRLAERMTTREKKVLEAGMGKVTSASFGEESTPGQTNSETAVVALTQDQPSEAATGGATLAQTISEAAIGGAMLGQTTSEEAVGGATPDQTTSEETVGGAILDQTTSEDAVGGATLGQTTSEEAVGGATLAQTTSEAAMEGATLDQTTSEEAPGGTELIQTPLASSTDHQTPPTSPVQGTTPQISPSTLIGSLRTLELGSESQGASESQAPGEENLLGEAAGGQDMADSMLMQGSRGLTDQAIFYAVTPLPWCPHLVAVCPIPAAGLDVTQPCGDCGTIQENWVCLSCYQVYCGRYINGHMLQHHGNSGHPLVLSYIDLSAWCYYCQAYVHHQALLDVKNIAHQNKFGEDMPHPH
Method: as §1

[3] = target: T3, human HDAC3/SMRT heterodimer (Homo sapiens (Human), UniProt O15379); experiment: biochemical
T3 sequence (O15379 whole entry): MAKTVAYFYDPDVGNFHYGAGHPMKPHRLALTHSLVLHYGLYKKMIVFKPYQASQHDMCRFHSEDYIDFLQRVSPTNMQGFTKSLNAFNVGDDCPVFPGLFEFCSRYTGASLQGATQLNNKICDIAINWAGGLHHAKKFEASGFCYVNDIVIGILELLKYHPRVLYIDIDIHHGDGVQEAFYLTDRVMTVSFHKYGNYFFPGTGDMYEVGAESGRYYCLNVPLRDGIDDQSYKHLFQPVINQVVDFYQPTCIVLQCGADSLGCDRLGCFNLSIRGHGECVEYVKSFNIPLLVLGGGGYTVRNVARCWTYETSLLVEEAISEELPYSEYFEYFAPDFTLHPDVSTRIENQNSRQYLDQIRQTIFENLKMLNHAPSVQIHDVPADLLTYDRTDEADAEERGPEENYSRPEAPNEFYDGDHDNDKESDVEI
T3 sequence (Q9Y618 1-899 partner): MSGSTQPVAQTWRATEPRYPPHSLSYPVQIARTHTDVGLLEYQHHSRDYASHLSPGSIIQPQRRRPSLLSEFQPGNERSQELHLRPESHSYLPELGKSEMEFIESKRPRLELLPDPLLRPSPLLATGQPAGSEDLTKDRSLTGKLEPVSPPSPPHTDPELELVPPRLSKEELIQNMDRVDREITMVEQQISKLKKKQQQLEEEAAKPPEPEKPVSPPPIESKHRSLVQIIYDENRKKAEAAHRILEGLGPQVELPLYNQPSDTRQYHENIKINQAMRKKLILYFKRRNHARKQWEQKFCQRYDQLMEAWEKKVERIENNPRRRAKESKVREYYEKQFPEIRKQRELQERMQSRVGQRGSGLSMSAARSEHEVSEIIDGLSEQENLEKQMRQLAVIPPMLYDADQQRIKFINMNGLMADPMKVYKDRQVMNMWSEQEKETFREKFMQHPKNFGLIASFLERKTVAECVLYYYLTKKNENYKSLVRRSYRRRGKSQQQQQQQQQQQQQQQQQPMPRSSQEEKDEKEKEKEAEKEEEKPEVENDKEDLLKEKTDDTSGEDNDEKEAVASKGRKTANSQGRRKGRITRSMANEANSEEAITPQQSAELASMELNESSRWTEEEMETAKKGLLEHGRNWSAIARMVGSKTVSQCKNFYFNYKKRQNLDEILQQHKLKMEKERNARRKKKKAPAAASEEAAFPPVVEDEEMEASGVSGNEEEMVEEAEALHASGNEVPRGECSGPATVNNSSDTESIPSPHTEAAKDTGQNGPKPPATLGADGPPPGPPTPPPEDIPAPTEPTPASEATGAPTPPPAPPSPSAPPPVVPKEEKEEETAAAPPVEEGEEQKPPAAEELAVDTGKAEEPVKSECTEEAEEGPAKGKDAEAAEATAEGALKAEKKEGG

[4] = target: T3, human HDAC3/SMRT heterodimer
HDAC6 [5] = target: T2, HDAC6
Method: as §1

human HDAC1 [6] = target: T1, human HDAC1
[7] = 200 μM substrate BML-KI178, 3 h pre-incubation, read-out: HDAC8 IC50
[8] = read-out: Karn EC50 nM 0.1% NHS, 0.1% normal human serum, luciferase induction, 2 μM SAHA = 100%
[9] = read-out: Karn EC50 nM 5% NHS, 5% normal human serum, luciferase induction, 2 μM SAHA = 100%
[10] = 40 μM substrate BML-KI104, 3 h pre-incubation, read-out: HDAC2 IC50
[11] = […] enzyme, 200 μM substrate BML-KI178, 3 h pre-incubation, read-out: HDAC8 IC50
[12] = […] enzyme, 40 μM substrate BML-KI104, 3 h pre-incubation, read-out: HDAC2 IC50

Cc1ccc2cc(-c3c[nH]c([C@@H](N)CCCCCC(=O)c4ncco4)n3)ccc2n1 [Example 9, (S)-7-amino-7-(4-(2-methylquinolin-6-yl)-1H-imidazol-2-yl)-1-(oxazol-2-yl)heptan-1-one]
IC50 (human HDAC8; [7]): 2000 nM
EC50 (KARN cells (Jurkat 2C4); [8]): 160 nM
EC50 (KARN cells (Jurkat 2C4); [9]): 160 nM
IC50 (human HDAC2; [10]): 12 nM
pIC50 (human HDAC1 [1]): 8.62
pIC50 (HDAC6 [2]): 5.64

CCn1ccc2cc(-c3c[nH]c([C@@H](N)CCCCCC(=O)c4ncco4)n3)ccc2c1=O [Example 10, (S)-6-(2-(1-amino-7-(oxazol-2-yl)-7-oxoheptyl)-1H-imidazol-4-yl)-2-ethylisoquinolin-1(2H)-one]
IC50 (human HDAC8; [7]): 2350 nM
EC50 (KARN cells (Jurkat 2C4); [8]): 300 nM
EC50 (KARN cells (Jurkat 2C4); [9]): 450 nM
IC50 (human HDAC2; [10]): 9.9 nM
pIC50 [3]: 8.55
pIC50 (human HDAC1 [1]): 8.59
pIC50 (HDAC6 [2]): ≤ 4.35

N[C@@H](CCCCCC(=O)c1ncco1)c1ncc(-c2ccc3ncccc3c2)[nH]1 [Example 16, (S)-7-amino-1-(oxazol-2-yl)-7-(5-(quinolin-6-yl)-1H-imidazol-2-yl)heptan-1-one]
IC50 (human HDAC8; [7]): 1400 nM
EC50 (KARN cells (Jurkat 2C4); [8]): 120 nM
EC50 (KARN cells (Jurkat 2C4); [9]): 170 nM
IC50 (human HDAC2; [10]): 8.8 nM
pIC50 [3]: 8.59
pIC50 (human HDAC1 [1]): 8.57
pIC50 (HDAC6 [2]): 4.48

COc1cc2ncccc2cc1-c1c[nH]c([C@@H](N)CCCCCC(=O)c2ncco2)n1 [Example 23, (S)-7-amino-7-(4-(7-methoxyquinolin-6-yl)-1H-imidazol-2-yl)-1-(oxazol-2-yl)heptan-1-one]
IC50 (human HDAC8; [7]): 660 nM
EC50 (KARN cells (Jurkat 2C4); [8]): 100 nM
EC50 (KARN cells (Jurkat 2C4); [9]): 210 nM
IC50 (human HDAC2; [10]): 9.5 nM
pIC50 [3]: 8.74
pIC50 (human HDAC1 [1]): 8.72
pIC50 (HDAC6 [2]): 4.51

COc1nc(C2CC2)ccc1-c1c[nH]c([C@@H](N)CCCCCC(=O)c2ncco2)n1 [Example 24, (S)-7-amino-7-(4-(6-cyclopropyl-2-methoxypyridin-3-yl)-1H-imidazol-2-yl)-1-(oxazol-2-yl)heptan-1-one]
IC50 (human HDAC8; [7]): 3200 nM
EC50 (KARN cells (Jurkat 2C4); [8]): 1400 nM
EC50 (KARN cells (Jurkat 2C4); [9]): 2000 nM
IC50 (human HDAC2; [10]): 39 nM
pIC50 [3]: 8.46
pIC50 (human HDAC1 [1]): 8.15
pIC50 (HDAC6 [2]): ≤ 4.35

N[C@@H](CCCCCC(=O)c1ncco1)c1[nH]c(-c2ccc(F)cc2)nc1Cl [Example 25, (S)-7-amino-7-(4-chloro-2-(4-fluorophenyl)-1H-imidazol-5-yl)-1-(oxazol-2-yl)heptan-1-one]
IC50 (human HDAC8; [7]): 6300 nM
EC50 (KARN cells (Jurkat 2C4); [8]): 340 nM
EC50 (KARN cells (Jurkat 2C4); [9]): 650 nM
IC50 (human HDAC2; [10]): 5 nM
pIC50 [3]: 9.42
pIC50 (human HDAC1 [1]): 9.18
pIC50 (HDAC6 [2]): ≤ 4.35

Cc1ccc2cc(-c3cnc(C(N)CCCCCC(=O)c4ncco4)o3)ccc2n1 (centres unmarked) [Example 26, 7-amino-7-(5-(2-methylquinolin-6-yl)oxazol-2-yl)-1-(oxazol-2-yl)heptan-1-one]
IC50 (human HDAC8; [7]): 8000 nM
EC50 (KARN cells (Jurkat 2C4); [8]): 6200 nM
EC50 (KARN cells (Jurkat 2C4); [9]): 6900 nM
IC50 (human HDAC2; [10]): 35 nM
pIC50 [3]: 7.89
pIC50 (human HDAC1 [1]): 7.96
pIC50 (HDAC6 [2]): ≤ 4.35

COc1cc2nc(C)ccc2cc1-c1cnc([C@@H](N)CCCCCC(=O)c2ncco2)o1 [Example 27, (S)-7-amino-7-(5-(7-methoxy-2-methylquinolin-6-yl)oxazol-2-yl)-1-(oxazol-2-yl)heptan-1-one]
IC50 (human HDAC8; [7]): 1200 nM
EC50 (KARN cells (Jurkat 2C4); [8]): 120 nM
EC50 (KARN cells (Jurkat 2C4); [9]): 140 nM
IC50 (human HDAC2; [10]): 9.5 nM
pIC50 (human HDAC1 [1]): 8.72
pIC50 (HDAC6 [2]): 5.95

COc1cc2ncccc2cc1-c1c[nH]c([C@@H](N)CCCCCC(=O)c2ccon2)n1 [Example 34, (S)-7-amino-1-(isoxazol-3-yl)-7-(4-(7-methoxyquinolin-6-yl)-1H-imidazol-2-yl)heptan-1-one]
IC50 (human HDAC8; [7]): 120 nM
EC50 (KARN cells (Jurkat 2C4); [8]): 23 nM
EC50 (KARN cells (Jurkat 2C4); [9]): 44 nM
IC50 (human HDAC2; [10]): 5.1 nM
pIC50 (human HDAC1 [1]): 8.85
pIC50 (HDAC6 [2]): 5.25

N[C@@H](CCCCCC(=O)c1cocn1)c1ncc(-c2ccccc2F)[nH]1 [Example 36, (S)-7-amino-7-(5-(2-fluorophenyl)-1H-imidazol-2-yl)-1-(oxazol-4-yl)heptan-1-one]
IC50 (human HDAC8; [7]): > 900 nM
pIC50 (HDAC6 [2]): < 6.05

Cc1ccc2cc(-c3c[nH]c([C@H](CCCCCC(=O)c4ncco4)NC4CCN(C)CC4)n3)ccc2n1 [Example 78, (S)-7-((1-methylpiperidin-4-yl)amino)-7-(5-(2-methylquinolin-6-yl)-1H-imidazol-2-yl)-1-(oxazol-2-yl)heptan-1-one]
pIC50 (human HDAC8): 5.16
EC50 (KARN cells (Jurkat 2C4); read-out: Karn EC50 nM 0.1% NHS): 660 nM
EC50 (KARN cells (Jurkat 2C4); read-out: Karn EC50 nM 5% NHS): 620 nM
pIC50 (human HDAC2): 8.08
pIC50 (human HDAC1 [1]): 8.55
pIC50 (HDAC6 [2]): ≤ 4.35

COc1cc(-c2cnc([C@H](CCCCCC(=O)c3ncco3)NC(=O)C3CN(C)C3)[nH]2)c(F)cn1 [Example 178, N-[(1S)-1-[5-(5-fluoro-2-methoxypyridin-4-yl)-1H-imidazol-2-yl]-7-(1,3-oxazol-2-yl)-7-oxoheptyl]-1-methylazetidine-3-carboxamide]
pIC50 (human HDAC8; [11]): 7.08
pIC50 [4]: 8.82
EC50 (KARN cells (Jurkat 2C4); [8]): 80 nM
EC50 (KARN cells (Jurkat 2C4); [9]): 1000 nM
pIC50 (human HDAC2; [12]): 8.11
pIC50 (HDAC6 [5]): 5.28
pIC50 (human HDAC1 [6]): 8.70

CCN1CCC2(CC1)C[C@@H]2C(=O)N[C@@H](CCCCCC(=O)c1ncco1)c1ncc(-c2cc(OC)ncc2F)[nH]1 [Example 179, (1S)-6-ethyl-N-[(1S)-1-[5-(5-fluoro-2-methoxypyridin-4-yl)-1H-imidazol-2-yl]-7-(1,3-oxazol-2-yl)-7-oxoheptyl]-6-azaspiro[2.5]octane-1-carboxamide]
pIC50 (human HDAC8; [11]): 7.19
pIC50 [4]: 8.82
EC50 (KARN cells (Jurkat 2C4); [8]): 36 nM
EC50 (KARN cells (Jurkat 2C4); [9]): 48 nM
pIC50 (human HDAC2; [12]): 8.15
pIC50 (HDAC6 [5]): 5.37
pIC50 (human HDAC1 [6]): 8.64

CCN1CCC2(CC1)C[C@@H]2C(=O)N[C@@H](CCCCCC(=O)c1ncco1)c1ccn(-c2ccc3nn(C)cc3c2)n1 [Example 180, (1S)-6-ethyl-N-[(1S)-1-[1-(2-methyl-2H-indazol-5-yl)-1H-pyrazol-3-yl]-7-(1,3-oxazol-2-yl)-7-oxoheptyl]-6-azaspiro[2.5]octane-1-carboxamide]
pIC50 (human HDAC8; [11]): 6.77
pIC50 [4]: 8.82
EC50 (KARN cells (Jurkat 2C4); [8]): 200 nM
EC50 (KARN cells (Jurkat 2C4); [9]): 190 nM
pIC50 (human HDAC2; [12]): 8.28
pIC50 (HDAC6 [5]): < 6.05
pIC50 (human HDAC1 [6]): 9.05

CN1CC(C(=O)N[C@@H](CCCCCC(=O)c2ncco2)c2ncc(-c3cc(OC4CCC4)ccc3F)[nH]2)C1 [Example 181, N-[(1S)-1-{5-[5-(cyclobutyloxy)-2-fluorophenyl]-1H-imidazol-2-yl}-7-(1,3-oxazol-2-yl)-7-oxoheptyl]-1-methylazetidine-3-carboxamide]
pIC50 (human HDAC8; [11]): 7.92
pIC50 [4]: 9.00
EC50 (KARN cells (Jurkat 2C4); [8]): 84 nM
EC50 (KARN cells (Jurkat 2C4); [9]): 630 nM
pIC50 (human HDAC2; [12]): 7.89
pIC50 (HDAC6 [5]): < 6.05
pIC50 (human HDAC1 [6]): 8.59

CCN1CCC2(CC1)C[C@@H]2C(=O)N[C@@H](CCCCCC(=O)c1ncco1)c1ncc(-c2cc(OC3CCC3)ccc2F)[nH]1 [Example 182, (1S)-N-[(1S)-1-{5-[5-(cyclobutyloxy)-2-fluorophenyl]-1H-imidazol-2-yl}-7-(1,3-oxazol-2-yl)-7-oxoheptyl]-6-ethyl-6-azaspiro[2.5]octane-1-carboxamide]
pIC50 (human HDAC8; [11]): 8.25
pIC50 [4]: 9.10
EC50 (KARN cells (Jurkat 2C4); [8]): 41 nM
EC50 (KARN cells (Jurkat 2C4); [9]): 190 nM
pIC50 (human HDAC2; [12]): 8.04
pIC50 (HDAC6 [5]): < 6.05
pIC50 (human HDAC1 [6]): 8.70

CCN1CCC2(CC1)C[C@@H]2C(=O)N[C@@](C)(CCCCCC(=O)c1ccon1)c1ncc(-c2ccccc2F)[nH]1 [Example 183, (S)-6-ethyl-N-((S)-2-(5-(2-fluorophenyl)-1H-imidazol-2-yl)-8-(isoxazol-3-yl)-8-oxooctan-2-yl)-6-azaspiro[2.5]octane-1-carboxamide]
pIC50 (human HDAC8; [11]): 6.26
pIC50 [4]: 9.32
EC50 (KARN cells (Jurkat 2C4); [8]): 37 nM
EC50 (KARN cells (Jurkat 2C4); [9]): 37 nM
pIC50 (human HDAC2; [12]): 8.64
pIC50 (HDAC6 [5]): 4.37
pIC50 (human HDAC1 [6]): 9.25

CN1CCC2(CC1)C[C@@H]2C(=O)N[C@@H](CCCCCC(=O)c1ncco1)c1[nH]c(-c2ccc(F)cc2)nc1C#N [Example 187, (S)-N-((S)-1-(4-cyano-2-(4-fluorophenyl)-1H-imidazol-5-yl)-7-(oxazol-2-yl)-7-oxoheptyl)-6-methyl-6-azaspiro[2.5]octane-1-carboxamide]
pIC50 (human HDAC8; [11]): 6.77
pIC50 [4]: 9.80
EC50 (KARN cells (Jurkat 2C4); [8]): 20 nM
EC50 (KARN cells (Jurkat 2C4); [9]): 25 nM
pIC50 (human HDAC2; [12]): 9.08
pIC50 (HDAC6 [5]): 4.35
pIC50 (human HDAC1 [6]): 9.80

CN1CCC2(CC1)C[C@@H]2C(=O)N[C@@H](CCCCCC(=O)c1ncco1)c1oc(-c2ccc(F)cc2)nc1C#N [Example 191, (S)-N-((S)-1-(4-cyano-2-(4-fluorophenyl)oxazol-5-yl)-7-(oxazol-2-yl)-7-oxoheptyl)-6-methyl-6-azaspiro[2.5]octane-1-carboxamide]
pIC50 (human HDAC8; [11]): 5.64
pIC50 [4]: 8.72
EC50 (KARN cells (Jurkat 2C4); [8]): 110 nM
EC50 (KARN cells (Jurkat 2C4); [9]): 100 nM
pIC50 (human HDAC2; [12]): 7.92
pIC50 (HDAC6 [5]): 4.35
pIC50 (human HDAC1 [6]): 8.60

CN1CCC2(CC1)C[C@@H]2C(=O)N[C@@H](CCCCCC(=O)c1ccon1)c1nc(Cl)c(-c2ccc(F)cc2)[nH]1 [Example 195, (S)-N-((S)-1-(4-chloro-5-(4-fluorophenyl)-1H-imidazol-2-yl)-7-(isoxazol-3-yl)-7-oxoheptyl)-6-methyl-6-azaspiro[2.5]octane-1-carboxamide 2,3-dihydroxysuccinate]
pIC50 (human HDAC8; [11]): 8.02
pIC50 [4]: 10.34
EC50 (KARN cells (Jurkat 2C4); [8]): 1.4 nM
EC50 (KARN cells (Jurkat 2C4); [9]): 1.9 nM
pIC50 (human HDAC2; [12]): 9.49
pIC50 (HDAC6 [5]): 5.51
pIC50 (human HDAC1 [6]): 9.85
